Laboratory results reported in ChEMBL document CHEMBL1909046, “DrugMatrix in vitro pharmacology data”.
Where a SMILES comes first, the peptide text is derived from it. Bridges are numbered along the chain shown (N, C = ends). [ ]: non-standard residue; d: D form. The star is where a group is joined. Threoninol(2S,3R) = C[C@@H](O)[C@H](CO)N*

Tests used:
[1] = biological target: T1, Glucocorticoid receptor (Homo sapiens, UniProt P04150); conditions: hela s3
T1 sequence (P04150 whole entry): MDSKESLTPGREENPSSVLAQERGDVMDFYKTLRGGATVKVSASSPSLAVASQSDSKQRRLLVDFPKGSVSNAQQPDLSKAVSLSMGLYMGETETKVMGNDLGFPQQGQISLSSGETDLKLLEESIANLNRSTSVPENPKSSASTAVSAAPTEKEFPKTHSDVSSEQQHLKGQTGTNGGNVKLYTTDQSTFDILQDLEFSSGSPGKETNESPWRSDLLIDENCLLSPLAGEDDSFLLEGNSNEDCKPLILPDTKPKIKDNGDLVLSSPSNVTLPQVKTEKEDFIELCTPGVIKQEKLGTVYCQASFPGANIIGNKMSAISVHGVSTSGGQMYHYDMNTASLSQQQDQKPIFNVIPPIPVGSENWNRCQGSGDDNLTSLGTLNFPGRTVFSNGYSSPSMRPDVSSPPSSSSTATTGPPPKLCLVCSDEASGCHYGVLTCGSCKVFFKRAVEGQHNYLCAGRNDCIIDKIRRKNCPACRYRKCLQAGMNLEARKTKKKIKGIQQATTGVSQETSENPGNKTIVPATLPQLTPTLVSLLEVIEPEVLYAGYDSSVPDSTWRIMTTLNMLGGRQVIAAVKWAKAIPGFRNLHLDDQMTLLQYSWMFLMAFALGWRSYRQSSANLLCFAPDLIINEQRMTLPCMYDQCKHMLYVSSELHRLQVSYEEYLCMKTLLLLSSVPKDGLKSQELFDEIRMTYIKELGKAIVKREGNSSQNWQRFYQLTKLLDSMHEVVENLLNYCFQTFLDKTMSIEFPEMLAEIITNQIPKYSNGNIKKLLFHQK

[2] = biological target: T2, Muscarinic acetylcholine receptor M2 (Homo sapiens, UniProt P08172); assay type: cell membranes, CHO-K1, Membrane; conditions: cho-k1
T2 sequence (P08172 whole entry): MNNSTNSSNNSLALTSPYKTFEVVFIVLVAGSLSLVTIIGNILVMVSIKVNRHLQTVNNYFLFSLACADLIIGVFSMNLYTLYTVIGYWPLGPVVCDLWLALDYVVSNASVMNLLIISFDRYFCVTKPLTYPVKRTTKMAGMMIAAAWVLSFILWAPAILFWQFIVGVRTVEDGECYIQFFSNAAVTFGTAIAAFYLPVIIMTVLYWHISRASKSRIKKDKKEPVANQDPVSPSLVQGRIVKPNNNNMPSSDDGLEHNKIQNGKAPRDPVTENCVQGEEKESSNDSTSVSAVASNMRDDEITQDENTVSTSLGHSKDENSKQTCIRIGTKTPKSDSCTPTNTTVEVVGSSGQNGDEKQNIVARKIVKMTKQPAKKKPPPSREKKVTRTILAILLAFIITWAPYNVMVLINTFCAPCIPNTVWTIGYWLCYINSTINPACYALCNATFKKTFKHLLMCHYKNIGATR

[3] = biological target: Cytochrome P450 2C19 (Homo sapiens, UniProt P33261); conditions: bti-tn-5b1-4
Also: in other assays of this panel Not Active means under 50% inhibition at 10 µM.

Sequence of Cytochrome P450 2C19 (P33261 whole entry): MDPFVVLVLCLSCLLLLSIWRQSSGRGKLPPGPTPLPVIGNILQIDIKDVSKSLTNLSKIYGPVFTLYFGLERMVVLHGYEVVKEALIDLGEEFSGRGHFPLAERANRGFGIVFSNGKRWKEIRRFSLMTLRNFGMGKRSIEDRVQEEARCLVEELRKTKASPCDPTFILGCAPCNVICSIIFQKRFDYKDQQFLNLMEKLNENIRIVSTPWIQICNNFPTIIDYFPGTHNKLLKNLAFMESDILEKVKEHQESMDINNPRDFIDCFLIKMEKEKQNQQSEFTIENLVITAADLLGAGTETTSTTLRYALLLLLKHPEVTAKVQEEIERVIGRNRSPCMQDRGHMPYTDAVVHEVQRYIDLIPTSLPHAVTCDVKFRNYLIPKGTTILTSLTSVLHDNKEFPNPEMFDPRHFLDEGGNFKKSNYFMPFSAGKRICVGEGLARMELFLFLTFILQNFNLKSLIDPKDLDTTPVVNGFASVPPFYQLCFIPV

O=C1CC[C@H](N2C(=O)c3ccccc3C2=O)C(=O)N1
Not Active: IC50 [1] | IC50 [2] | IC50 [3] | Ki [3]

C[C@@H](O)[C@H](CO)NC(=O)[C@@H]1CSSC[C@H](NC(=O)[C@H](N)Cc2ccccc2)C(=O)N[C@@H](Cc2ccccc2)C(=O)N[C@H](Cc2c[nH]c3ccccc23)C(=O)N[C@@H](CCCCN)C(=O)N[C@@H]([C@@H](C)O)C(=O)N1 (H-[dF]CF[dW]KTC-{Threoninol(2S,3R)}; disulfide 2-7)
Not Active: IC50 [1] | IC50 [2] | IC50 [3] | Ki [3]

CCCC(=O)Nc1ccc(OCC(O)CNC(C)C)c(C(C)=O)c1 (stereo not drawn) [ACEBUTOLOL]
Not Active: IC50 [1] | IC50 [2] | IC50 [3] | Ki [3]

N=C(N)NC(=O)c1nc(Cl)c(N)nc1N [AMILORIDE]
Not Active: IC50 [1] | IC50 [2] | IC50 [3] | Ki [3]

CN1C(=O)COc2c(C(=O)NC3CN4CCC3CC4)cc(Cl)cc21 (stereo not drawn) [AZASETRON]
Not Active: IC50 [2] | IC50 [3] | Ki [3]

C[C@H]1C[C@H]2[C@@H]3CCC4=CC(=O)C=C[C@]4(C)[C@@]3(Cl)[C@@H](O)C[C@]2(C)[C@@]1(O)C(=O)CO [BECLOMETHASONE]
Not Active: IC50 [2] | IC50 [3] | Ki [3]

CCOC(=O)[C@H](CCc1ccccc1)N[C@H]1CCc2ccccc2N(CC(=O)O)C1=O [BENAZEPRIL]
Not Active: IC50 [1] | IC50 [2] | IC50 [3] | Ki [3]

Nc1c(CC(=O)O)cccc1C(=O)c1ccc(Br)cc1 [BROMFENAC]
Not Active: IC50 [2] | IC50 [3] | Ki [3]

C[C@@]12C(=O)OC(=O)[C@]1(C)[C@H]1CC[C@@H]2O1 [CANTHARIDIN]
Not Active: IC50 [1] | IC50 [2] | IC50 [3] | Ki [3]

CC1=C(C(=O)O)N2C(=O)[C@@H](NC(=O)[C@H](N)c3ccccc3)[C@H]2SC1 [CEPHALEXIN ANHYDROUS]
Not Active: IC50 [1] | IC50 [2]

O=C(N[C@H](CO)[C@H](O)c1ccc([N+](=O)[O-])cc1)C(Cl)Cl [CHLORAMPHENICOL]
Not Active: IC50 [2]

ClC(Cl)Cl [CHLOROFORM]
Not Active: IC50 [1] | IC50 [2] | IC50 [3] | Ki [3]

C=C1CC[C@H](O)C/C1=C/C=C1\CCC[C@]2(C)[C@@H]([C@H](C)CCCC(C)C)CC[C@@H]12 [CHOLECALCIFEROL]
Not Active: IC50 [1] | IC50 [2] | IC50 [3] | Ki [3]

C[N+](C)(C)CCO.[Cl-] [CHOLINE CHLORIDE]
Not Active: IC50 [2] | IC50 [3] | Ki [3]

CCOC(=O)C(C)(C)Oc1ccc(Cl)cc1 [CLOFIBRATE]
Not Active: IC50 [1] | IC50 [2]

O=c1ccc2ccccc2o1 [COUMARIN]
Not Active: IC50 [2] | IC50 [3] | Ki [3]

C[C@@H]1C[C@@H]([C@H](O)CC2CC(=O)NC(=O)C2)C(=O)[C@@H](C)C1 [CYCLOHEXIMIDE]
Not Active: IC50 [2]

C/C=C/C[C@@H](C)[C@@H](O)[C@H]1C(=O)N[C@@H](CC)C(=O)N(C)CC(=O)N(C)[C@@H](CC(C)C)C(=O)N[C@@H](C(C)C)C(=O)N(C)[C@@H](CC(C)C)C(=O)N[C@@H](C)C(=O)N[C@H](C)C(=O)N(C)[C@@H](CC(C)C)C(=O)N(C)[C@@H](CC(C)C)C(=O)N(C)[C@@H](C(C)C)C(=O)N1C [CYCLOSPORINE]
Not Active: IC50 [2]

CN(C)/N=N/c1[nH]cnc1C(N)=O [DACARBAZINE]
Not Active: IC50 [1] | IC50 [2] | IC50 [3] | Ki [3]

COc1ccc2c(c1)[C@]13CCCC[C@@H]1[C@H](C2)N(C)CC3 [DEXTROMETHORPHAN]
Not Active: IC50 [1] | IC50 [2] | IC50 [3] | Ki [3]

CC(=O)Nc1c(I)c(NC(C)=O)c(I)c(C(=O)O)c1I [DIATRIZOIC ACID]
Not Active: IC50 [1] | IC50 [2] | IC50 [3] | Ki [3]

COP(=O)(OC)OC=C(Cl)Cl [DICHLORVOS]
Not Active: IC50 [2] | IC50 [3] | Ki [3]

COc1cccc2c1C(=O)c1c(O)c3c(c(O)c1C2=O)C[C@@](O)(C(=O)CO)C[C@@H]3O[C@H]1C[C@H](N)[C@H](O)[C@H](C)O1 [DOXORUBICIN]
Not Active: IC50 [1] | IC50 [2] | IC50 [3] | Ki [3]
